Assay results published in patent publication US5192766A, “N-acryloylpiperazine derivatives, their preparation and their use as PAF antagonists” (Sankyo Company, Limited, priority 1989, dated 1993).
pIC50: −log10 of the molar value.

Key:
PAF-induced hypotension = assay: Inhibition of PAF-induced hypotension; format: in vivo, Wistar-Imamichi rats; conditions: Rattus norvegicus, iv, 1 min; anesthetized rats; l-C16:0 PAF 10 ng/kg i.v.; test compound i.v. cumulatively, 1 min before PAF; read-out: Inhibitory effect ID50
Protocol: Inhibition of PAF-induced hypotension
The test animals used were Wistar-Imamichi rats, each weighing from 350 to 450 g, anesthetized with Inactin (90 mg/kd, intraperitoneally).
Blood pressure was continuously measured throughout the experiment through a cannula inserted into the femoral artery. Each drug sample to be tested was intravenously injected through a cannula inserted into the femoral vein.
At first, l-C16:0 PAF was injected intravenously in amounts of 10 ng/kg at each injection at intervals of 5 minutes until the degree of the hypotensive response became constant. Then, each drug sample to be treated was intravenously injected. After one minute, the same dose of PAF was administered again. The drug sample was cumulatively administered. From its inhibition rate against the PAF-induced hypotensive effect, the 50% inhibitive dose (ID50) was determined, and is regarded as an index of PAF-antagonist activity. For administration, the PAF was dissolved in physiological saline solution containing 0.25% w/v of bovine serum albumin (BSA). The compounds under test were dissolved in dimethylformamide for use.
CV-3988 is disclosed in U.S. Pat. No. 4,408,052, and is structurally related to PAF itself.
In this Table, the compounds of the invention are identified by the number of the foregoing Example in which they were prepared.

Acute toxicity = format: in vivo; conditions: oral, 300 mg/kg, 3 male ddy mice (5 weeks old), observed one week
Protocol: Each of the compounds prepared as described in Examples 2, 7 and 15 was separately administered orally in a dose of 300 mg/kg to each of a group of 3 male ddy mice (5 weeks old).

[1] = tested on: blood platelet (PAF-induced aggregation); assay: Inhibitory effect in vitro against PAF-induced blood platelet aggregation; format: cell-based; conditions: Oryctolagus cuniculus, 5 min; rabbit platelet rich plasma; l-C16:0 PAF final 10^-8 ~3×10^-8 M; 5 min observation
Protocol: Inhibitory effect in vitro against PAF-induced blood platelet aggregation
Blood samples were drawn from a rabbit and one part by volume of each sample was immediately mixed with 1/9 part of a 3.8% w/v aqueous solution of sodium citrate. The samples were centrifuged at 150×G at room temperature for 15 minutes to obtain a platelet rich plasma (PRP) fraction from the upper layer. The remains were further centrifuged at 1,000×G for 15 minutes to obtain a platelet poor plasma (PPP) fraction from the upper layer. The PRP and PPP fractions were mixed appropriately, to obtain a sample in which the final count of blood platelets was adjusted to be 6×10^5 per ul. According to the method reported by Born et al. [G. V. R. Born et al.: J. Physiol. 62, 67-68 (1962)], blood platelet aggregation was determined by an increase in light transmission measured using an aggregometer. 3 ul of a solution of the test compound in dimethyl sulfoxide were added to 272 ul of PRP, and, after 1 minute, 25 ul of a physiological saline solution containing l-c16:0 PAF (at a final concentration of 10^-8 ~3×10^-8 M) were added. […] At the end of this value and the value of PAF-induced aggregation which was observed when dimethyl sulfoxide only was used without the addition of any test compound. IC50 values were calculated from the dose-response curve.

PAF-receptor = molecular target: T1, PAF-receptor (Oryctolagus cuniculus, UniProt G1TEI7); assay: Inhibitor effect on PAF-receptor binding; conditions: specific binding of ^3H-PAF; rabbit platelet PAF-receptor membrane fraction; read-out: Inhibition of receptor binding (IC50 M)
T1 construct: is regarded as a PAF-receptor membrane fraction; from tissue; host or cells: rabbit blood platelets (membrane fraction from sucrose density layers)
T1 sequence (G1TEI7 1-342): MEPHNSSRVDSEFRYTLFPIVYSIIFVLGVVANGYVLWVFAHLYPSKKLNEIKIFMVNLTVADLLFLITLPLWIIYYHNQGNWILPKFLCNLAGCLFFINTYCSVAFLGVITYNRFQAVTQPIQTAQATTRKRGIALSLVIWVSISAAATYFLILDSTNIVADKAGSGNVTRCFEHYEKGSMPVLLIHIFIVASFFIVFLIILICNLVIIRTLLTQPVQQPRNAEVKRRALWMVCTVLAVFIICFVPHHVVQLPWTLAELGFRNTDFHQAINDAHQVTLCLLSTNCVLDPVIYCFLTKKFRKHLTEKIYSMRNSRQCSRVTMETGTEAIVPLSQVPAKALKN
From the text: Inhibitor effect on PAF-receptor binding
Blood samples were drawn from the heart of a rabbit. 1 part by volume of each sample was mixed immediately with 1/9 part of 0.77M solution of disodium ethylenediaminetetraacetate. After a similar procedure to that described in Experiment 2, a precipitated blood platelet sample was obtained. This blood platelet sample was washed, and, after repeated freezing and thawing for cellular breakdown, it was laid on top of double layers consisting of […] and 1.5M sucrose solutions. By centrifugation at 63,500×G, for 2 hours at 4° C., the fraction obtained from the interface between the 0.25M and 1.5M sucrose solutions was collected and is regarded as a PAF-receptor membrane fraction. A receptor binding experiment was conducted according to a method very similar to that reported by Hwang et al. [San-Bao Hwang et al.: J. Biol. Chem. 260, 15639-15645 (1985)]. The specific binding of ^3 H-PAF was measured using a Wattman GF/C filter. A test compound was dissolved in dimethyl sulfoxide and diluted 100 fold with a buffer solution containing 0.5% bovine serum albumin. Nine parts by weight of the solution, for a receptor binding experiment, was mixed with one part of the test compound solution prepared above. The percent inhibition of the specific binding was plotted for a log concentration of the test compound, and the 50% inhibitory concentration (IC50) was calculated from the linear line connecting all the plotted points.

Row | Compound | ED50 (PAF-induced hypotension) [mg/kg] | Acute toxicity (survival) (Acute toxicity) | pIC50 [1] | pIC50 (PAF-receptor)
1 | COc1ccc(C(=CC(=O)N2CCN(C(=O)c3cc(OC)c(OC)c(OC)c3)CC2)c2ccc(OC)cc2)cc1 [Example 2, 1-[3,3-Bis(4-methoxyphenyl)acryloyl]-4-(3,4,5-trimethoxybenzoyl)piperazine] | 0.039 | all mice survived | 6.70 | 
2 | COc1ccc(/C(=C/C(=O)N2CCN(C(=O)c3cc(OC)c(OC)c(OC)c3)CC2)c2ccc(Cl)cc2)cc1OC [Example 15, 1-[(E)-3-(4-Chlorophenyl)-3-(3,4-dimethoxyphenyl)acryloyl]-4-(3,4,5-trimethoxybenzoyl)piperazine] | 0.022 | all mice survived | 7.17 | 7.37
3 | COc1cc(C(=O)N2CCN(C(=O)C=C(c3cccc(Cl)c3)c3cccc(Cl)c3)CC2)cc(OC)c1OC [Example 41, 1-[3,3-Bis(3-chlorophenyl)acryloyl]-4-(3,4,5-trimethoxybenzoyl)piperazine] | 0.0071 |  | 7.17 | 6.77
4 | COc1ccc(/C(=C/C(=O)N2CCN(C(=O)c3cc(OC)c(OC)c(OC)c3)CC2)c2ccccc2)cc1OC [Example 7, 1-[(E)-3-(3,4-Dimethoxyphenyl)cinnamoyl]-4-(3,4,5-trimethoxybenzoyl)piperazine] | 0.014 | all mice survived |  | 
